Read-outs that look alike come from different tables or passages of the source. Where a SMILES comes first, the peptide text is derived from it. [ ]: non-standard residue; d: D form. The star is where a group is joined. Stearoyl = CCCCCCCCCCCCCCCCCC(=O)*
Columns and labels:
[1] = molecular target: T1, human thrombin (Homo sapiens, UniProt P00734); test: Degradation mediated by human thrombin (HPLC); assay type: in vitro ADME; conditions: human thrombin (69 NIH/mL) in Tris-HCl buffer, pH 8, 69 NIH/ml human thrombin, peptide 0.41 mM, 37 °C, read-out: peptide remained after reaction with human thrombin
T1 construct: purchased National Institute for the Control of Pharmaceutical and Biological Products (Beijing, China)
Protocol: The catalytic cleavage of peptides mediated by thrombin was also examined using the same method. Specifically, a peptide solution (0.41 mM) was first incubated with thrombin (69 NIH/mL) in Tris-HCl buffer (70 mM Tris HCl, NaCl 50 mM, pH = 8.0) at 37 °C.

[2] = Pharmacokinetics in rats, i.v.; assay type: in vivo; conditions: rat
Protocol: SD Rats were randomly divided into three groups (n = 5). […] All blood samples were immediately centrifuged at 5000 rpm for 5 min at room temperature, and the plasma obtained was stored at −20 °C before analysis. To the rat plasma (100 μL) was added 10 μL internal standard (80 ~ 100 ng/ml Carbamazepine), followed by mixing with 200 μL methanol with vortexing for 1 min. At this stage, certain amounts of proteins may precipitate out, thus this mixture was centrifuged at 12,000 rpm for 5 min at room temperature to achieve complete separation. The 20 μl supernatant was injected into a HPLC (Symbiosis, Spark, Holland; column: 50 mm × 2.1 mm, 5 μm, Agilent Eclipse Plus) –MS/MS system (ABI 4000 Q-Trap triple quadrupole mass spectrometer) equipped with electrospray ionization (ESI) source in the positive ion mode (Foster City, USA). The HPLC elution gradient was as follows: 0–0.5 min, 5–5% (B); 0.5–3 min, 5–95% (B); 3–4 min, 95–95% (B); 4–4.06 min, 95–5% (B); 4.06–6 min, 5–5% (B); the flow-rate was 0.4 ml/min; A was 0.1% formic acid/Waterl, B was 0.1% formic acid/methanol. The MS parameters were: CUR10Psi; Ion Spray Voltage (IS) 5500v; Collision activated dissociation (CAD) High, Gas1 = 50 psi, Gas2 = 50 psi, TEM = 500 °C.
All three peptides remained stable in plasma during three freeze/thaw cycles, at room temperature for at least 2 h. The supernatant of plasma samples were also found to be stable for at least 24 h at 10 °C in the autosampler.
The statistical significance of the difference among pharmacokinetic parameters was determined using the mean comparison Student’s t-test, and the resulting P values were lower than 0.05, which is considered to be statistically significant.

[3] = test system: IVC thrombosis; test: Inferior vena cava (IVC) thrombosis in rats; assay type: in vivo, rat
Protocol: Specifically, a laparotomy with ligation of the IVC below the renal veins and all visible side branches was first performed. 20 min or 5 hours after the administration of peptide or saline, the thrombosis in the IVC was carefully dissected and weighted after removing blood residual.

[4] = molecular target: T2, human serum albumin (HSA) (Homo sapiens, UniProt P02768); test: Intrinsic HSA fluorescence quenching; assay type: binding; conditions: HSA 5 μM, pH 7.4, 25 °C
T2 construct: purchased Calbiochem (Merck, Germany)
Protocol: Fluorescence measurements were conducted on a Hitachi F-4500 spectrofluorometer with a slit width of 5 nm (excitation) and 5 nm (emission). All measurements were performed at 25 °C in a 1 cm path length quartz cell. Samples were excited at 280 nm and the fluorescence intensity was measured between 300–400 nm. Human serum albumin (5 μM) was dissolved in 10 mM HEPES/100 mM NaCl solution (pH 7.4), and then titrated with the stock solution of peptides prepared in the same buffer. The background fluorescence spectra were recorded and subtracted from the ones collected from the peptide-containing samples.

[5] = Bleeding time test (BT) in rats; assay type: in vivo, rat; conditions: for increase on the bleeding time compared with the saline group: 30 min; for bleeding time (BT): 30 min after administration
Protocol: Bleeding time was determined as reported previously. Male SD rats (180–220 g) were divided into 6 groups (n = 8). […] Thirty minutes after the injection, bleeding was induced by tail transection of the anesthetized rat with a size 21 disposable scalpel blade 2 mm from the tail tip. The bleeding tail was wiped with filter paper every 30 s, and the bleeding time was recorded when no blood was observed on the filter paper.

[6] = molecular target: T3, rat thrombin (Rattus norvegicus, UniProt P18292); test: Inhibition of rat thrombin-catalyzed hydrolysis of Chromozym TH; assay type: biochemical; conditions: 25 °C, pH 7.4
T3 construct: purchased Sigma

[7] = test system: rat plasma; test: TT, PT and APTT of rat blood after administration; assay type: in vivo
Protocol: Forty-eight male SD rats (180 ~ 220 g) were randomly divided into six groups (n = 8) and anesthetized by i.p.20% ethyl urethane (1 g·kg^−1). […] Blood samples were obtained from the abdominal aorta, and then mixed with 3.8% sodium citrate solution in a ratio of 9:1 (v/v). The resulting samples were centrifuged at 3000 rpm for 15 min at 18 °C. TT, PT and APTT were determined according to the kit protocol (Sunbio Ltd., Shanghai) on a C2000 coagulometer (Precil, Beijing).

[8] = test system: rat plasma; test: Time course of APTT in rat plasma after peptide administration; assay type: in vivo
Protocol: Peptides were administrated to male SD rats (280–320 g) via tail veins. At different time points (0, 20, 40, 60, 90, 120, 180, and 240 min; or 0, 1, 2, 3, 4, 5, 8, and 12 h) after peptide injection, blood samples were collected via retroorbital vein plexus, and then mixed with 3.2% sodium citrate solution in a ratio of 9:1 (v/v). The resulting mixtures were centrifuged at 2,000 g for 15 min at 4 °C. The APTT of rat plasma was determined on a coagulation analyzer (Coatron M1, TECO, Germany) following the manual protocol. Briefly, a cuvette with 0.05 mL rat plasma was first warmed to 37 °C for 2 min, and then 0.05 mL of the warmed APTT reagent was added, followed by incubating at 37 °C for 3 min. Afterwards, 50 μL calcium chloride solution (0.25 M) was added into the cuvette, and the clotting time of plasma samples was recorded immediately with the coagulation analyser (APTT).

[9] = SD, plasma, iv, 1 umol/kg, 1 μmol/kg i.v., n = 5

T2 sequence (P02768 25-609): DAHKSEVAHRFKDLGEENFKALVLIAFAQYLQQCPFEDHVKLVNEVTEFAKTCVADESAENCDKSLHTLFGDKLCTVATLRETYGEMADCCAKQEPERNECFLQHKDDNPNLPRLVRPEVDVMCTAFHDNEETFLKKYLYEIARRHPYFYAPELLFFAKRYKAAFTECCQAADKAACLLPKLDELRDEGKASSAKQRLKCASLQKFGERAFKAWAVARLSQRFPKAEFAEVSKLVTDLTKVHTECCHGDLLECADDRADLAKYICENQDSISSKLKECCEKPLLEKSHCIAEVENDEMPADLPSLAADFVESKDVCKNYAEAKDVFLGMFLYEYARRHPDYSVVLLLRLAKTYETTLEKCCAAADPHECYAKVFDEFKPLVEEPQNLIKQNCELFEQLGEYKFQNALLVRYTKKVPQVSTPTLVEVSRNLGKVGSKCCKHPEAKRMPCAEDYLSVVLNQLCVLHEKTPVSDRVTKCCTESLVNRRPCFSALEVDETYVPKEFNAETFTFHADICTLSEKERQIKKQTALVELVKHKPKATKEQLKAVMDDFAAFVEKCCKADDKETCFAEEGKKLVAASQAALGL

CCCCCCCCCCCCCCCCCC(=O)NCCCC[C@H](NC(=O)CNC(=O)[C@@H]1CCCN1C(=O)[C@H](CCCNC(=N)N)NC(=O)[C@@H]1CCCN1C(=O)[C@H](N)Cc1ccccc1)C(=O)NCC(=O)NCC(=O)N[C@@H](CCC(N)=O)C(=O)NCC(=O)N[C@@H](CC(=O)O)C(=O)N[C@@H](Cc1ccccc1)C(=O)N[C@@H](CCC(=O)O)C(=O)N1CCC[C@H]1C(=O)N[C@H](C(=O)N1CCC[C@H]1C(=O)N[C@@H](CCC(=O)O)C(=O)N[C@@H](CC(=O)O)C(=O)N[C@@H](C)C(=O)N[C@@H](Cc1ccc(O)cc1)C(=O)N[C@@H](CC(=O)O)C(=O)N[C@@H](CCC(=O)O)C(N)=O)[C@@H](C)CC [Peptide S2] (H-[dF]PRPGK(Stearoyl)GGQGDFEPIPEDAYDE-NH2; N-terminus assumed)
remaining at 3 h, 0.41 mM ([1]; 3 h): 93% | remaining at 5 h, 0.41 mM ([1]; 5 h): 69% | AUC(0-inf) [2, 9]: 26.5 µM·h | Cmax [2, 9]: 10.1 ± 1.1 µM | clearance [2, 9]: 0.7 ± 0.1 mL/min/kg | AUC(0-t) ([2]; SD, plasma, iv, 1 umol/kg, 1 μmol/kg i.v., n = 5, read-out: AUC(0-t) (converted)): 22.9 µM·h | Vd ([2]; SD, plasma, iv, 1 umol/kg, 1 μmol/kg i.v., n = 5, read-out: Vss): 0.146 ± 0.0155 L/kg | half-life [2, 9]: 3.54 ± 0.973 h | MRT last ([2]; in vivo, iv, 1 umol/kg, 1 μmol/kg i.v., n = 5, read-out: MRT0-t (converted)): 3.29 h | half-life, fold longer than hirulog-1 [2]: 13.1 fold | half-life, fold longer than peptide 1 [2]: 14.7 fold | AUC(0-t) ([2]; 1 μmol/kg i.v., n = 5): 22.862 ± 3.463 µM·h | AUC(0-∞) ([2]; 1 μmol/kg i.v., n = 5): 1590.6 ± 311.7 nmol·min/mL | Weight of wet thrombosis ([3]; 0.27 mg/kg (0.1 μmol/kg), 300 min after administration): 1.7 ± 0.2 mg | Weight of wet thrombosis ([3]; 0.81 mg/kg (0.3 μmol/kg), 300 min after administration): 0 mg | Weight of wet thrombosis ([3]; 1.61 mg/kg (0.6 μmol/kg), 300 min after administration): 0 mg | Weight of wet thrombosis ([3]; 2.69 mg/kg (1.0 μmol/kg), 20 min after administration): 1.3 ± 1.8 mg | Weight of wet thrombosis ([3]; 2.69 mg/kg (1.0 μmol/kg), 300 min after administration): 0 mg | binding to HSA by intrinsic fluorescence quenching [4]: dose-dependent fluorescence quenching within the range of 2.5 ~ 16 μM | increase on the bleeding time compared with the saline group ([5]; 0.5 mg/kg): 29.03% | bleeding time (BT) ([5]; 0.5 mg/kg): 300.00 ± 35.86 s | increase on the bleeding time compared with the saline group ([5]; 1.0 mg/kg): 122.58% | bleeding time (BT) ([5]; 1.0 mg/kg): 517.50 ± 38.45 s | increase on the bleeding time compared with the saline group ([5]; 2.0 mg/kg): 174.19% | bleeding time (BT) ([5]; 2.0 mg/kg): 637.50 ± 74.79 s | Ki [6]: 15.2 ± 0.18 nM | antithrombotic activity (TT, PT, APTT) compared with references ([7]; 0.5 mg/kg peptide S2, 30 min after administration): superior to the 8 mg/kg hirulog-1 and 200 IU/kg heparin | TT, PT and APTT of rat blood ([7]; 30 min after administration, sublingual vein): significantly elevate | APTT of rat plasma, time course ([8]; after injection via tail vein, Fig. 1D): increased in the first 4 h, and then decreased | duration of antithrombotic activity (APTT) ([8]; rat plasma after peptide administration): more than 8 h
